{"source": "ChEMBL document CHEMBL6153048", "about": "“Synthesis and pharmacological evaluation of natural product diphyllin derivatives against head and neck squamous cell carcinoma” (Eur J Med Chem, 2025)", "key": {"CAL-27 [1]": {"tested_on": "CAL-27", "assay": "Induction of apoptosis in human CAL-27 cells assessed as viable cells at 1 nM incubated for 72 hrs by Annexin V-FITC/propidium iodide staining based flow cytometry analysis (reference value: 88.23%)", "format": "functional", "details": "read-out: Activity"}, "CAL-27 [2]": {"tested_on": "CAL-27", "assay": "Induction of apoptosis in human CAL-27 cells assessed as early apoptotic cells at 1 nM incubated for 72 hrs by Annexin V-FITC/propidium iodide staining based flow cytometry analysis (reference value: 9.16%)", "format": "functional"}, "CAL-27 [3]": {"tested_on": "CAL-27", "assay": "Induction of apoptosis in human CAL-27 cells assessed as viable cells at 10 nM incubated for 72 hrs by Annexin V-FITC/propidium iodide staining based flow cytometry analysis (reference value: 88.23%)", "format": "functional", "details": "read-out: Activity"}, "CAL-27 [4]": {"tested_on": "CAL-27", "assay": "Induction of apoptosis in human CAL-27 cells assessed as early apoptotic cells at 10 nM incubated for 72 hrs by Annexin V-FITC/propidium iodide staining based flow cytometry analysis (reference value: 9.16%)", "format": "functional"}, "CAL-27 [5]": {"tested_on": "CAL-27", "assay": "Induction of apoptosis in human CAL-27 cells assessed as late apoptotic cells at 10 nM incubated for 72 hrs by Annexin V-FITC/propidium iodide staining based flow cytometry analysis (reference value: 2.57%)", "format": "functional"}, "CAL-27 [6]": {"tested_on": "CAL-27", "assay": "Induction of apoptosis in human CAL-27 cells assessed as early apoptotic cells at 100 nM incubated for 72 hrs by Annexin V-FITC/propidium iodide staining based flow cytometry analysis (reference value: 9.16%)", "format": "functional"}, "CAL-27 [7]": {"tested_on": "CAL-27", "assay": "Induction of apoptosis in human CAL-27 cells assessed as late apoptotic cells at 100 nM incubated for 72 hrs by Annexin V-FITC/propidium iodide staining based flow cytometry analysis (reference value: 2.57%)", "format": "functional"}, "CAL-27 [8]": {"tested_on": "CAL-27", "assay": "Induction of apoptosis in human CAL-27 cells assessed as viable cells at 1000 nM incubated for 72 hrs by Annexin V-FITC/propidium iodide staining based flow cytometry analysis (reference value: 88.23%)", "format": "functional", "details": "read-out: Activity"}, "CAL-27 [9]": {"tested_on": "CAL-27", "assay": "Induction of apoptosis in human CAL-27 cells assessed as early apoptotic cells at 1000 nM incubated for 72 hrs by Annexin V-FITC/propidium iodide staining based flow cytometry analysis (reference value: 9.16%)", "format": "functional"}, "CAL-27 [10]": {"tested_on": "CAL-27", "assay": "Induction of apoptosis in human CAL-27 cells assessed as late apoptotic cells at 1000 nM incubated for 72 hrs by Annexin V-FITC/propidium iodide staining based flow cytometry analysis (reference value: 2.57%)", "format": "functional"}, "CAL-27 [11]": {"tested_on": "CAL-27", "assay": "Antiproliferative activity against human CAL-27 cells assessed as inhibition of cell communities at 1 uM treated for 11 days by plate clone formation assay", "format": "functional, cell-based", "details": "time 11.0 day"}, "CAL-27 [12]": {"tested_on": "CAL-27", "assay": "Induction of cell cycle arrest in human CAL-27 cells assessed as accumulation of cells at S phase at 1 to 1000 nM incubated for 48 hrs by flow cytometry analysis (Rvb=18%)", "format": "functional", "details": "dose 1-1000 nM"}, "CAL-27 [13]": {"tested_on": "CAL-27", "assay": "Induction of apoptosis in human CAL-27 cells assessed as early apoptotic cells at 1 nM incubated for 72 hrs by Annexin V-FITC/propidium iodide staining based flow cytometry analysis (reference value: 7.74%)", "format": "functional"}, "CAL-27 [14]": {"tested_on": "CAL-27", "assay": "Induction of apoptosis in human CAL-27 cells assessed as late apoptotic cells at 1 nM incubated for 72 hrs by Annexin V-FITC/propidium iodide staining based flow cytometry analysis (reference value: 1.82%)", "format": "functional"}, "CAL-27 [15]": {"tested_on": "CAL-27", "assay": "Induction of apoptosis in human CAL-27 cells assessed as viable cells at 10 nM incubated for 72 hrs by Annexin V-FITC/propidium iodide staining based flow cytometry analysis (reference value: 90.41%)", "format": "functional", "details": "read-out: Activity"}, "CAL-27 [16]": {"tested_on": "CAL-27", "assay": "Induction of apoptosis in human CAL-27 cells assessed as early apoptotic cells at 10 nM incubated for 72 hrs by Annexin V-FITC/propidium iodide staining based flow cytometry analysis (reference value: 7.74%)", "format": "functional"}, "CAL-27 [17]": {"tested_on": "CAL-27", "assay": "Induction of apoptosis in human CAL-27 cells assessed as viable cells at 100 nM incubated for 72 hrs by Annexin V-FITC/propidium iodide staining based flow cytometry analysis (reference value: 90.41%)", "format": "functional", "details": "read-out: Activity"}, "CAL-27 [18]": {"tested_on": "CAL-27", "assay": "Induction of apoptosis in human CAL-27 cells assessed as late apoptotic cells at 100 nM incubated for 72 hrs by Annexin V-FITC/propidium iodide staining based flow cytometry analysis (reference value: 1.82%)", "format": "functional"}, "CAL-27 [19]": {"tested_on": "CAL-27", "assay": "Induction of apoptosis in human CAL-27 cells assessed as apoptotic cells at 10 nM incubated for 72 hrs by Annexin V-FITC/propidium iodide staining based flow cytometry analysis (reference value: 10.29%)", "format": "functional"}, "CAL-27 [20]": {"tested_on": "CAL-27", "assay": "Induction of apoptosis in human CAL-27 cells assessed as apoptotic cells at 100 nM incubated for 72 hrs by Annexin V-FITC/propidium iodide staining based flow cytometry analysis (reference value: 10.29%)", "format": "functional"}, "CAL-27 [21]": {"tested_on": "CAL-27", "assay": "Induction of apoptosis in human CAL-27 cells assessed as early apoptotic cells at 1000 nM incubated for 72 hrs by Annexin V-FITC/propidium iodide staining based flow cytometry analysis (reference value: 7.74%)", "format": "functional"}, "CAL-27 [22]": {"tested_on": "CAL-27", "assay": "Induction of apoptosis in human CAL-27 cells assessed as late apoptotic cells at 1000 nM incubated for 72 hrs by Annexin V-FITC/propidium iodide staining based flow cytometry analysis (reference value: 1.82%)", "format": "functional"}, "CAL-27 [23]": {"tested_on": "CAL-27", "assay": "Effect on cell growth factor in human CAL-27 cells assessed as regulation of cell growth factor related gene expression at 1 nM incubated for 48 hrs by GO analysis", "format": "functional, cell-based"}, "CAL-27 [24]": {"tested_on": "CAL-27", "assay": "Effect on cell adhesion molecule in human CAL-27 cells assessed as regulation of gene expression at 1 nM incubated for 48 hrs by GSEA analysis", "format": "functional, cell-based"}, "CAL-27 [25]": {"tested_on": "CAL-27", "assay": "Effect on apoptosis in human CAL-27 cells assessed as regulation of gene expression at 1 nM incubated for 48 hrs by GSEA analysis", "format": "functional, cell-based"}, "CAL-27 [26]": {"tested_on": "CAL-27", "assay": "Effect on cell cycle in human CAL-27 cells assessed as regulation of gene expression at 1 nM incubated for 48 hrs by GSEA analysis", "format": "functional, cell-based"}, "[27]": {"assay": "Half life in ICR mouse at 3 mg/kg, po measured upto 24 hrs by LC-MS/MS analysis", "format": "ADME, organism-based", "details": "in vivo"}, "[28]": {"assay": "Toxicity in BALB/c mouse xenografted with human CAL-27 cells assessed as body weight at 0.3 mg/kg, iv treated four times a week for 30 days", "format": "organism-based", "details": "in vivo, 720 h, time 30 day"}, "[29]": {"assay": "Toxicity in BALB/c mouse xenografted with human CAL-27 cells assessed as body weight at 0.6 mg/kg, iv treated four times a week for 30 days", "format": "organism-based", "details": "in vivo, 720 h, time 30 day"}, "CAL-27 [30]": {"tested_on": "CAL-27", "assay": "Antitumor activity against human CAL-27 cells xenografted in BALB/c mouse model assessed as reduction in tumor weight at 0.3 mg/kg, iv treated four times a week for 30 days", "format": "functional", "design": "scale not given: the % may be the effect or the level left", "details": "time 30 day"}, "CAL-27 [31]": {"tested_on": "CAL-27", "assay": "Antitumor activity against human CAL-27 cells xenografted in BALB/c mouse model assessed as reduction in reduction in Ki-67 expression at 0.6 mg/kg, iv treated four times a week for 30 days by immunohistochemical staining analysis", "format": "functional, organism-based", "details": "time 30.0 day"}, "CAL-27 [32]": {"tested_on": "CAL-27", "assay": "Antitumor activity against human CAL-27 cells xenografted in BALB/c mouse model assessed as reduction in nuclear division at 0.6 mg/kg, iv treated four times a week for 30 days by HE staining analysis", "format": "functional, organism-based", "details": "time 30.0 day"}, "CAL-27 [33]": {"tested_on": "CAL-27", "assay": "Antitumor activity against human CAL-27 cells xenografted in BALB/c mouse model assessed as cancer cell death at 0.6 mg/kg, iv treated four times a week for 30 days by HE staining analysis", "format": "functional, organism-based", "details": "time 30.0 day"}}, "note": "Active and inactive are the calls of the source. The rule behind the calls is not given here."}
{"smiles": "COc1cc2c(O)c3c(c(-c4ccc5c(c4)OCO5)c2cc1OC)C(=O)OC3", "note": "[DIPHYLLIN]", "values": [{"measurement": "viability at 0.001 µM", "setting": "CAL-27 [1]", "value": 91.4, "unit": "%"}, {"measurement": "Activity", "setting": "CAL-27 [2]", "value": 2.68, "unit": "%"}, {"measurement": "viability at 0.01 µM", "setting": "CAL-27 [3]", "value": 94.8, "unit": "%"}, {"measurement": "Activity", "setting": "CAL-27 [4]", "value": 3.78, "unit": "%"}, {"measurement": "Activity", "setting": "CAL-27 [5]", "value": 1.34, "unit": "%"}, {"measurement": "Activity", "setting": "CAL-27 [6]", "value": 4.87, "unit": "%"}, {"measurement": "Activity", "setting": "CAL-27 [7]", "value": 2.58, "unit": "%"}, {"measurement": "viability at 1 µM", "setting": "CAL-27 [8]", "value": 82.8, "unit": "%"}, {"measurement": "Activity", "setting": "CAL-27 [9]", "value": 12.06, "unit": "%"}, {"measurement": "Activity", "setting": "CAL-27 [10]", "value": 5.03, "unit": "%"}]}
{"smiles": "COc1cc2c(O[C@@H]3O[C@@H]4CO[C@@H](c5ccsc5)O[C@H]4[C@H](O)[C@H]3O)c3c(c(-c4ccc5c(c4)OCO5)c2cc1OC)C(=O)OC3", "values": [{"measurement": "Activity", "setting": "CAL-27 [11]", "value": "Active; Showed More Potent Suppression"}, {"measurement": "Activity", "setting": "CAL-27 [12]", "value": 6, "unit": "%"}, {"measurement": "Activity", "setting": "CAL-27 [13]", "value": 4.74, "unit": "%"}, {"measurement": "Activity", "setting": "CAL-27 [14]", "value": 2.19, "unit": "%"}, {"measurement": "viability at 0.01 µM", "setting": "CAL-27 [15]", "value": 55, "unit": "%"}, {"measurement": "Activity", "setting": "CAL-27 [16]", "value": 16.27, "unit": "%"}, {"measurement": "viability at 0.1 µM", "setting": "CAL-27 [17]", "value": 28.6, "unit": "%"}, {"measurement": "Activity", "setting": "CAL-27 [18]", "value": 41.19, "unit": "%"}, {"measurement": "Activity", "setting": "CAL-27 [19]", "value": 41.84, "unit": "%"}, {"measurement": "Activity", "setting": "CAL-27 [20]", "value": 50.9, "unit": "%"}, {"measurement": "Activity", "setting": "CAL-27 [21]", "value": 25.35, "unit": "%"}, {"measurement": "Activity", "setting": "CAL-27 [22]", "value": 36.94, "unit": "%"}, {"measurement": "Activity", "setting": "CAL-27 [23]", "value": "Active"}, {"measurement": "Activity", "setting": "CAL-27 [24]", "value": "Active"}, {"measurement": "Activity", "setting": "CAL-27 [25]", "value": "Active"}, {"measurement": "Activity", "setting": "CAL-27 [26]", "value": "Active"}, {"measurement": "half-life", "setting": "[27]", "value": 31, "unit": "min"}, {"measurement": "Activity", "setting": "[28]", "value": "Non-toxic"}, {"measurement": "Activity", "setting": "[29]", "value": "Non-toxic"}, {"measurement": "Activity", "setting": "CAL-27 [30]", "value": 34, "unit": "%"}, {"measurement": "Activity", "setting": "CAL-27 [31]", "value": "Active"}, {"measurement": "Activity", "setting": "CAL-27 [32]", "value": "Active"}, {"measurement": "Activity", "setting": "CAL-27 [33]", "value": "Active"}]}
